Results taken from patent US20110269226A1, “Microfluidic Continuous Flow Device for Culturing Biological Material” (priority 2008, published 2011).

Legend:
medeka fish embryo = experiment: Effect of chemical substances on fish embryo development in cultivation chamber of microfluidic continuous flow device; assay type: in vivo, Medaka (Oryzias latipes); conditions: for death of the Medaka embryos: after 25 hours
From the text: A medeka fish embryo was introduced into the cultivation chamber using a pipette. The fish embryos maintain the same size until they hatch. Once all the embryos are transferred to the 8 wells of the microfluidic continuous flow device shown in FIG. 1, a coverslip is placed over the wells to seal them off.
In two different experiments EtOH (ethanol, 0-5%) and TAA ([…], 0-3%) were used as chemical substances to test the reaction of the fish embryo retained in the cultivation chamber of the microfluidic continuous flow device shown in FIG. 1. Both substances affect the liver (TAA induces lipid peroxidation which leads to liver damage). An over-dosage of both will lead to death. The flow rate in the microfluidic continuous flow device is about 1 ml/2.5 hours or 400 μl/h.

zebrafish = conditions: cited from earlier work

Which results are given for `CCO` [EtOH, ethanol]?
intoxication of the embryo versus concentration (medeka fish embryo; EtOH 0 to 5 v/v %, over 25 hours): The higher the concentration of the EtOH, the intoxicated the embryo is; effect on organs (medeka fish embryo; EtOH highest concentration (4.27% and 5%), 25 hours): the organs seem to be affected; organ colour change (medeka fish embryo; ethanol, the higher concentrations): the organs turned black; number of twitches (movements) of the embryo in the chamber (medeka fish embryo; rising ethanol concentration (0 to 5 v/v %)): the number of twitches rose with the ethanol concentration

What does the source list for `CC1(C)O[C@@H]2C[C@H]3[C@@H]4CCC5=CC(=O)C=C[C@]5(C)[C@@]4(F)[C@@H](O)C[C@]3(C)[C@]2(C(=O)CO)O1` [TAA, triamcinolone acetonide]?
death of the Medaka embryos (medeka fish embryo; TAA 1.5, 2 and 2.5 v/v %): died; death of the Medaka embryo (medeka fish embryo; TAA 3 v/v % (highest concentration), after 21 hours, stage 38): died and caused the death of the Medaka embryo; death of the Medaka embryos (medeka fish embryo; TAA, the 4 highest concentrations): had died

With `CNC(=O)Oc1cccc2ccccc12` [carbaryl] as the compound, how does the “effects observed on early development” value (zebrafish) read?
Its value is “Red blood cell accumulation and delayed hatching”.
